The values that follow come from ChEMBL document CHEMBL1156829 (Proc Natl Acad Sci U S A, 2008).

Data set [1] deals with Plasmodium falciparum. The data set can be described thus: NOVARTIS: Inhibition of Plasmodium falciparum 3D7 (drug-susceptible) proliferation in erythrocyte-based infection assay. The data set is classed as functional, organism-based. As to conditions: Plasmodium falciparum, 3D7.
Data set [2] in a line: NOVARTIS: Cytotoxicity against human hepatocellular carcinoma cell line (Huh7). As to conditions: Huh7 cells (hepatocellular carcinoma cell line). In kind it is toxicity, cell-based, Huh-7.
Data set [3] relates to Plasmodium falciparum. Briefly: NOVARTIS: Inhibition of Plasmodium falciparum W2 (drug-resistant) proliferation in erythrocyte-based infection assay. In kind it is functional, organism-based. As to conditions: Plasmodium falciparum, W2; read-out: EC50.

Take `C=CC1CN2CCC1CC2C(O)c1ccnc2ccccc12` (centres undefined): the EC50 worked out at 43.5 nM in the data set with Plasmodium falciparum [1] and 84.1 nM in the data set with Plasmodium falciparum [3]. In data set [2], this molecule had a CC50 of over 100000 nM.
Take `Cc1cc(C)[n+]2nc(N)c3ccccc3c2n1.[O-][Cl+3]([O-])([O-])[O-]`: the values for the EC50 in the data set on Plasmodium falciparum [1] and with Plasmodium falciparum [3] were 248 nM and 193 nM, respectively. The same molecule displayed a CC50 in data set [2] of over 10000 nM.
Taken in the same sequence, the figures for `Nc1ccnc2cc(Cl)ccc12` were 415 nM, 57.6 nM and 72000 nM.
As for `c1cc(-c2nc3ccccc3[nH]2)nc(-c2nc3ccccc3[nH]2)c1`, the EC50 in the data set with Plasmodium falciparum [1] turned out to be 686 nM; in the data set with Plasmodium falciparum [3] it was 916 nM. The CC50 in data set [2] worked out at 47500 nM.
With `C=CCNc1cc(-c2ccccn2)nc(-c2ccccn2)n1`, the values for the EC50 in the data set on Plasmodium falciparum [1] and in the data set with Plasmodium falciparum [3] were 125 nM and 192 nM, respectively. The molecule also registered a CC50 in data set [2] of over 10000 nM.
Taken in the same sequence, the figures for `COc1cncc(-c2cncc(-c3ccc(C)cc3)n2)c1` were 94.9 nM, 85.2 nM and over 100000 nM.
Taken in the same sequence, the figures for `CC(CNC(=O)c1ccccc1)C(=O)OCC(=O)[C@@]12OC(C)(C)O[C@@H]1CC1C3CCC4=CC(=O)C=C[C@]4(C)[C@@]3(F)[C@@H](O)C[C@@]12C` (some centres undefined) were 165 nM, 159 nM and 8220 nM.
The corresponding values for `COc1cccc(-c2ccc(O)c(CNC3CCCCCCC3)c2)n1` are 71.9 nM, 20.3 nM and 23100 nM.
On to `C=C[C@H]1CN2CC[C@H]1C[C@H]2[C@H](OC(=O)c1ccc(F)cc1)c1ccnc2ccccc12`, for which the EC50 is 777 nM in the data set on Plasmodium falciparum [1] and under 8.08 nM in the data set with Plasmodium falciparum [3]. The same molecule had a CC50 in data set [2] of over 10000 nM.
The corresponding values for `S=C(NN=CC=NNC(=S)Nc1ccccc1)Nc1ccccc1` are 1040 nM, 288 nM and 15000 nM.
For the molecule `Cc1ccc(OCCCCCCNCCO)c(C)c1`, the EC50 was 1970 nM with Plasmodium falciparum [1] and 391 nM in the data set on Plasmodium falciparum [3]. Half-maximal cytotoxicity in data set [2] (CC50) was put at 20400 nM.
As for `Oc1ccc(-c2ccccc2)cc1CN1CCCCCC1`, the half-maximal effective concentration (EC50) in the data set on Plasmodium falciparum [1] worked out at 242 nM; in the data set on Plasmodium falciparum [3] it was 53.7 nM. In data set [2], the CC50 was 67400 nM.
Turning to `COc1cc(OC)c(NC(=O)c2ccc(N3CC4CC(C3)c3cccc(=O)n3C4)c([N+](=O)[O-])c2)cc1Cl` (centres undefined), the EC50 amounted to 9690 nM with Plasmodium falciparum [1] and 1930 nM with Plasmodium falciparum [3]. Further, the 50% cytotoxic concentration (CC50) in data set [2] is over 100000 nM.
For `CCCCn1c(=N)n(CC(O)c2ccc(Cl)c(Cl)c2)c2ccccc21` (centres undefined), the figures for the EC50 with Plasmodium falciparum [1] and in the data set on Plasmodium falciparum [3] were 62.5 nM and 120 nM, respectively. Besides, the CC50 in data set [2] stood at 6240 nM.
As to `COc1ccc(Cl)cc1NC(=O)CSC1=C(C#N)C(c2ccccc2)C(C(=O)Nc2ccccc2)=C(C)N1` (centres undefined), the concentration for a half-maximal effect (EC50) with Plasmodium falciparum [1] is 3760 nM; in the data set with Plasmodium falciparum [3] it was 1910 nM. Further, in data set [2], the CC50 was over 100000 nM.
Take `Cc1ccc(-c2c3c(nc4sc(C(=O)Nc5cccc(C)c5)c(N)c24)CCC3)cc1`: the 50% effective concentration (EC50) in the data set on Plasmodium falciparum [1] worked out at 1010 nM; with Plasmodium falciparum [3], 82.7 nM. Moreover, the CC50 in data set [2] was over 100000 nM.
Taken in the same sequence, the figures for `Cc1cccc(NC(=O)c2cc(Cl)nc3ccccc23)c1` were 3670 nM, 1940 nM and over 100000 nM.
Taken in the same sequence, the figures for `CC(=O)c1cccc(CN2CCC(C(=O)Nc3ccc(-n4nc(C)cc4C)cc3)CC2)c1` were 2160 nM, 1950 nM and over 100000 nM.
The corresponding values for `COc1cc2nc(NCc3ccccn3)n3nc(-c4ccccc4)nc3c2cc1OC` are 3770 nM, 1910 nM and over 100000 nM.
For the molecule `CCOC(=O)C1=C(CC)NC2=C(C(=O)CCC2)C1c1ccc(N(C)C)cc1` (centres undefined), the EC50 in the data set with Plasmodium falciparum [1] was 8700 nM; in the data set on Plasmodium falciparum [3], 1910 nM. In addition, the CC50 in data set [2] is over 100000 nM.
Taken in the same sequence, the figures for `CC(=O)c1ccc(-n2cc(C(=O)C(C)Oc3ccc(Cl)cc3Cl)nn2)cc1` (centres undefined) were 72.9 nM, 192 nM and over 10000 nM.
Taken in the same sequence, the figures for `COc1ccc(C2CC(=O)C3=C(C2)NC(C)=C(C(=O)OC2CCCC2)C3c2ccccc2F)cc1OC` (centres undefined) were 40.4 nM, 12 nM and 14900 nM.
For `CCOc1ccc(S(=O)(=O)N=C2C=C(Nc3ccc(O)cc3)C(=O)c3ccccc32)cc1`, the EC50 with Plasmodium falciparum [1] was found to be 158 nM; in the data set with Plasmodium falciparum [3], 135 nM. Besides, the CC50 in data set [2] is 7050 nM.
In the case of `Cc1cccc[n+]1CCCCCCCCCC[n+]1ccccc1C`, the EC50 with Plasmodium falciparum [1] came to 102 nM; with Plasmodium falciparum [3], 81.8 nM. Also, the CC50 in data set [2] was over 100000 nM.
Taken in the same sequence, the figures for `O=[N+]([O-])c1ccc(N2CCCN(C(=S)Nc3ccccc3)CC2)nc1` were 91.5 nM, 80.1 nM and over 100000 nM.
Consider `COc1cncc(-c2cncc(-c3ccc(Oc4ccccc4)cc3)n2)c1`, for which the EC50 in the data set with Plasmodium falciparum [1] is 43.9 nM; in the data set with Plasmodium falciparum [3], 79.8 nM. The same molecule returned a CC50 in data set [2] of over 100000 nM.
The corresponding values for `CCOC(=O)c1cnc2c(C)cccc2c1Nc1ccc(C(C)=O)cc1` are 119 nM, 84.6 nM and over 100000 nM.
Taken in the same sequence, the figures for `COc1cc(CN(CCCN2CCOCC2)C(=O)Nc2cccc(C)c2)ccc1OCc1ccccc1` were over 1250 nM, 8.39 nM and over 10000 nM.
The corresponding values for `CC(C)(C)CC(=O)NCc1ccc(OC2CCN(CC(c3ccccc3)c3ccccc3)CC2)cc1` are 1160 nM, under 8.77 nM and over 10000 nM.
On to `Cc1ccc2nc(Cl)c3cc(C(=O)Nc4ccc(CN5CCC(C)CC5)cc4)sc3c2c1`, for which the EC50 stood at 45.1 nM in the data set with Plasmodium falciparum [1] and 64.9 nM in the data set on Plasmodium falciparum [3]. In addition, the CC50 in data set [2] is over 75800 nM.
`CC(C)CCN(CCC(C)C)CC(O)Cn1c2ccc(Cl)cc2c2cc(Cl)ccc21` (centres undefined): the EC50 turned out to be 292 nM with Plasmodium falciparum [1] and 82.8 nM in the data set with Plasmodium falciparum [3]. The molecule further came in with a CC50 in data set [2] of over 100000 nM.
Taken in the same sequence, the figures for `Cc1ccn2c(NC(C)(C)CC(C)(C)C)c(-c3ccccc3OC(=O)c3cccc(F)c3)nc2c1` were 581 nM, under 8.37 nM and over 10000 nM.
The corresponding values for `O=C(NC1CCN(CC(O)CN(Cc2ccccc2)S(=O)(=O)c2ccccc2)C1)c1cccc2ccccc12` (centres undefined) are 82.5 nM, under 8.3 nM and over 10000 nM.
Regarding `Oc1ccc(CN2CCCCC2)nc1-c1ccccc1`, the EC50 in the data set with Plasmodium falciparum [1] is 241 nM; in the data set with Plasmodium falciparum [3], 86.6 nM. This molecule also returned a CC50 in data set [2] of over 100000 nM.
Take `Cc1ccn2c(NC(C)(C)CC(C)(C)C)c(-c3ccccc3OC(=O)C3CCCC3)nc2c1`: the figures for the EC50 in the data set with Plasmodium falciparum [1] and with Plasmodium falciparum [3] were 1010 nM and under 8.29 nM, respectively. The CC50 in data set [2] was over 10000 nM.
As for `O=C(NC1CCN(CC(O)CN(Cc2ccccc2)S(=O)(=O)c2ccccc2)C1)c1ccsc1` (centres undefined), the EC50 was 120 nM in the data set on Plasmodium falciparum [1] and under 8.62 nM in the data set with Plasmodium falciparum [3]. This molecule had a CC50 in data set [2] of over 10000 nM.
`CCOc1ccc(N(C(C)=O)C2=C(N3CCN(C)CC3)C(=O)c3ccccc3C2=O)cc1`: the EC50 was 78.7 nM in the data set with Plasmodium falciparum [1] and 10.9 nM with Plasmodium falciparum [3]. The CC50 in data set [2] was 12900 nM.
With `O=C(Cc1cccs1)N1CCN(c2ccccn2)CC1`, the EC50 with Plasmodium falciparum [1] amounted to 3950 nM; with Plasmodium falciparum [3], 1930 nM. Also, the CC50 in data set [2] was over 100000 nM.
For `O=c1c2ccccc2nc(C=Cc2ccc([N+](=O)[O-])o2)n1-c1ccc(Br)cc1`, the EC50 was over 12300 nM with Plasmodium falciparum [1] and 1920 nM in the data set on Plasmodium falciparum [3]. Moreover, in data set [2], the CC50 is over 100000 nM.
Taken in the same sequence, the figures for `CC[n+]1c(/C=C/c2ccc(Cl)cc2)ccc2ccccc21` were 60.8 nM, under 8.16 nM and over 10000 nM.
`Cc1cc(N2CCCCC2)nc(NCc2ccccc2)n1`: the EC50 with Plasmodium falciparum [1] was determined as 5760 nM; in the data set with Plasmodium falciparum [3], 739 nM. Further, the CC50 in data set [2] turned out to be 38400 nM.
Taken in the same sequence, the figures for `CCOc1ccc(C(=O)CN2C(=O)c3ccccc3OC(C(C)C)C2=O)cc1[N+](=O)[O-]` (centres undefined) were over 12500 nM, 1920 nM and over 100000 nM.
In the case of `Cc1ccn2c(NC(C)(C)CC(C)(C)C)c(-c3ccccc3OC(=O)c3ccc(F)cc3)nc2c1`, the EC50 turned out to be 897 nM with Plasmodium falciparum [1] and 8.7 nM with Plasmodium falciparum [3]. The molecule further showed a CC50 in data set [2] of over 10000 nM.
Taken in the same sequence, the figures for `CC(=O)Nc1ccc2c(c1)CCCC2` were 1130 nM, 191 nM and over 10000 nM.
For `CNC1CC2OC(C)(C1OC)n1c3ccccc3c3c4c(c5c6ccccc6n2c5c31)C(=O)NC4O` (centres undefined), the EC50 was 190 nM with Plasmodium falciparum [1] and over 195 nM in the data set on Plasmodium falciparum [3]. Further, in data set [2], the CC50 is […].
Taken in the same sequence, the figures for `C=CC1CN2CCC1CC2[C@H](O)c1ccnc2ccc(OC)cc12` (some centres undefined) were 11.2 nM, 45.3 nM and 56500 nM.
Taken in the same sequence, the figures for `O=C1NC(=S)NC1=Cc1ccc(C(F)(F)F)cc1` were over 12500 nM, 1920 nM and over 100000 nM.
`O=C1NC(=S)NC1=Cc1cccc(Oc2ccccc2)c1`: the values for the EC50 with Plasmodium falciparum [1] and in the data set on Plasmodium falciparum [3] were over 6890 nM and 1940 nM, respectively. The molecule also returned a CC50 in data set [2] of over 100000 nM.
For the molecule `CN(CCCNc1ccnc2cc(Cl)ccc12)C(=O)C(C)(C)CCl`, the EC50 is 94.9 nM in the data set on Plasmodium falciparum [1] and 192 nM with Plasmodium falciparum [3]. Further, the half-maximal cytotoxic concentration (CC50) in data set [2] is over 10000 nM.
As to `CCCC(C)C(C(=O)Nc1c(C)cccc1C)N1C(=O)c2cc(NC(C)=O)ccc2NC(=O)[C@@H]1CCC(=O)O` (some centres undefined), the results for the half-maximal effective concentration (EC50) in the data set on Plasmodium falciparum [1] and with Plasmodium falciparum [3] were 1460 nM and over 163 nM, respectively. This molecule also yielded a CC50 in data set [2] of 8510 nM.
The corresponding values for `COC(=O)c1c(-c2c(F)cccc2Cl)noc1/C=C/Nc1ccccc1` are 272 nM, 191 nM and over 10000 nM.
For `CCOC(=O)c1cc(-c2ccccc2)n(CCC(=O)Nc2ccccc2N2CCN(C)CC2)c1C`, the EC50 in the data set on Plasmodium falciparum [1] amounted to 794 nM; in the data set with Plasmodium falciparum [3], 336 nM. Also, half-maximal cytotoxicity in data set [2] (CC50) was put at 17300 nM.
The corresponding values for `Cc1ccc2c(c1)c(-c1ccccc1)c(-c1ccccc1)n2CC(O)CN1CCN(Cc2ccccc2)CC1` (centres undefined) are 824 nM, 84.5 nM and over 100000 nM.

For orientation: EC50 means the concentration that produces a half-maximal response. Broadly, the CC50 is the concentration at which the toxic effect on the cells reaches its halfway point. A lower CC50 goes with harm at low concentration.
